These results are taken from patent US20150246907A1 (ETH Zurich, priority 2012, published 2015).

What is called MIC is the lowest concentration that inhibits growth of the organism.

The test system of this assay is Mycobacterium tuberculosis strain H37Rv. Nature of the assay: Minimal inhibitory concentration (MIC) by resazurin microtitre assay (REMA). The class given is cell-based. Particulars: for MIC: Mycobacterium tuberculosis, 168 h, M. tuberculosis H37Rv, REMA, 7 days (10 generations), 96-well plate. (In general: Resazurin is reduced to fluorescent resorufin, in cell work by metabolically active cells.)

The structures appear in SMILES notation. ≈ marks a conversion by molar mass, not a printed value.

On to `CC(C)[C@@H]1OC(=O)[C@H](C)[C@H](O)[C@H](Cc2cccnc2)NC(=O)[C@@H](NC(=O)c2ncccc2O)[C@@H](C)OC1=O` [Analog 100a], for which it took 12.5 µg/mL (≈ 23.6 µM) to inhibit growth (MIC).

In the case of `CC(C)[C@H]1OC(=O)[C@H](C)[C@H](O)[C@H](Cc2cccnc2)NC(=O)[C@@H](NC(=O)c2ncccc2O)[C@@H](C)OC1=O` [Analog 100b], it took 1.56 µg/mL (≈ 2.95 µM) to inhibit growth (MIC). Further, the “activity against Mycobacterium tuberculosis (strain H37Rv) compared with pyridomycin” value (strain H37Rv, statement in words) was “in the same range of inhibitory activity as for pyridomycin”.
